# Results taken from ChEMBL document CHEMBL3822417, “Predictive proteochemometric models for kinases derived from 3D protein field-based descriptors” (Medchemcomm, 2016).
# Legend:
# [1] = target: Serine/threonine-protein kinase 10 (Homo sapiens, UniProt O94804); test: Inhibition of STK10 (unknown origin)
# [2] = target: RAC-beta serine/threonine-protein kinase (Homo sapiens, UniProt P31751); test: Inhibition of AKT2 (unknown origin)
# Sequence of RAC-beta serine/threonine-protein kinase (P31751 whole entry): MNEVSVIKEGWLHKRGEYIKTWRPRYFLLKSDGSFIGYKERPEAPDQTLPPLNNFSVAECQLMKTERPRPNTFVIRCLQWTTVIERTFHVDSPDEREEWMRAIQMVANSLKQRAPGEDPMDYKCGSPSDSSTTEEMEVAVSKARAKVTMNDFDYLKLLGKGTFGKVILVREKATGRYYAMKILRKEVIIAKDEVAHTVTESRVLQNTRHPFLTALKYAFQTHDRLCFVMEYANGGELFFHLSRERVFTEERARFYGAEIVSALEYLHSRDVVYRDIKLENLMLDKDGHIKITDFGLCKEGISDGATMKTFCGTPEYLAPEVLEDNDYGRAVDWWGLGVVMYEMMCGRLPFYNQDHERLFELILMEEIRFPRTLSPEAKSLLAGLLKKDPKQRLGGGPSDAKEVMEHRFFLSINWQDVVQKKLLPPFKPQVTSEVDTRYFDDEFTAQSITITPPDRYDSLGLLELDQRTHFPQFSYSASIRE
# Sequence of Serine/threonine-protein kinase 10 (O94804 whole entry): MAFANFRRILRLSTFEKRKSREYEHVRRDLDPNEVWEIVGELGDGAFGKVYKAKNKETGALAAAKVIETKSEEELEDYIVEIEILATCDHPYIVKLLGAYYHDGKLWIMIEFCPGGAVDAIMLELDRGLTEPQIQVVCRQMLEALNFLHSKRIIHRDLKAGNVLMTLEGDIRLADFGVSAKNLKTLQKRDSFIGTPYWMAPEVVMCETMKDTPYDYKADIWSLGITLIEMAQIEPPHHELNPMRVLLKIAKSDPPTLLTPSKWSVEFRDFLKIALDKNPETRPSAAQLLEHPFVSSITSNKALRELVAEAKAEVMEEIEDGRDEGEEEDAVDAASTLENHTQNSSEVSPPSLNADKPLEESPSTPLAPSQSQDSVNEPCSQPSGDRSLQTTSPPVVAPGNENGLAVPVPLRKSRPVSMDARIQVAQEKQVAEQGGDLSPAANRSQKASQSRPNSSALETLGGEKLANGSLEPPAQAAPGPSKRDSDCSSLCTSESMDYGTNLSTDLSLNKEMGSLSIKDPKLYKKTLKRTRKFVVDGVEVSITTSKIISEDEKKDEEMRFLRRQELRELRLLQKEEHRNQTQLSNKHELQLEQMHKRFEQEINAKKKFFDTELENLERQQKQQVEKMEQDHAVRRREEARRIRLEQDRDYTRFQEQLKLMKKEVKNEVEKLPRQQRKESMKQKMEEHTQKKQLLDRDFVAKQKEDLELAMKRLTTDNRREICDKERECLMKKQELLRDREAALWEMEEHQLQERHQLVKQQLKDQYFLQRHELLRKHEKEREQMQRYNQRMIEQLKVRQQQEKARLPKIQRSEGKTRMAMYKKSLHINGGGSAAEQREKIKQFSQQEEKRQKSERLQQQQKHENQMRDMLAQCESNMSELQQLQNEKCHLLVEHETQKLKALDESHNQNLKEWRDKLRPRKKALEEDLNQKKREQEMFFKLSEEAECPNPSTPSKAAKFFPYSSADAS
Ki [1] [µM],Ki [2] [µM],Compound
> 10,,Oc1ccc(-c2nc(-c3ccncc3)c(-c3ccc(F)cc3)[nH]2)cc1 [SB-202190]
,> 10,COc1cc(N2CCC(N3CCN(C)CC3)CC2)ccc1Nc1ncc(Cl)c(Nc2ccccc2S(=O)(=O)C(C)C)n1 [TAE-684]
